Assay results reported in US20110183911A1, “METHOD FOR IMPROVING NEUROTRANSMISSION FAILURE USING A NOVEL AGENT” (JURIDICAL FOUNDATION THE CHEMO-SERO-THERAPEUTIC RESEARCH …, priority 2002, published 2011).
Where two headings read alike, the source gives them in different places.

Assays:
[1] = tested on: NG108-15 cells; experiment: Activity to accelerate synaptic formation: differentiation of NG108-15 cells, anti-Rab3a immunostaining; format: cell-based, rat; conditions: Selenoprotein P 4.36 μg/mL
Protocol: In order to study the effect of Selenoprotein P on synaptic formation, differentiation to neurons was examined using NG108-15 cells (hybridoma of rat neuroblastoma and rat glioma: ATCC NO. HB-12317) which has widely been used for study of synaptic formation and a receptor. NK108-15 cells were seeded to DME supplemented with 10% fetal calf serum and HAT (hypoxanthine, aminopterin and thymidine) in 35 mm polyornithine-coated dish and incubated at 37° C., 10% CO2. After 1 to 2 days, the culture medium was replaced with DMEM (serum free medium) supplemented with 1% fetal calf serum and HT (hypoxanthine and thymidine) and 0.1 mM dibutyl cyclic AMP (abcAMP) was added to induce differentiation while Selenoprotein P at 4.36 μg/mL was added to the medium followed by culture for 3 days. After culture, the dish attached with a sheet of cells was rinsed twice with phosphate buffered saline (hereinafter referred to as PBS) to wash the culture. Cellular proteins were then fixed with paraformaldehyde adjusted to 4% with PBS. After fixation at room temperature for 30 minutes, the dish was rinsed twice with PBS to remove a fixing solution. […]
The nerve cell bodies had also a number of short neurites. […] A proportion of synapses specifically dyed with the anti-Rab3a antibody was then calculated with Mac SCOPE (manufactured by Mitani Corporation), a software for image analysis for Mackintosh, to measure immunopositive spots. […] Therefore, those spots with R value alone could be extracted with the analysis software and measured. In addition, the number of varicosity with no immunological reaction was measured manually and then a proportion (%) of the number of immunopositive varicosity among a total number of varicosity in the photographed picture was calculated.

[2] = tested on: acetylcholine receptors; experiment: Pilocarpine-induced convulsion in mice (function of acetylcholine receptor); format: in vivo; conditions: ICR male mice
Protocol: In order to study the effect of Selenoprotein P on cholinergic neurons, to mice was administered pilocarpine that agonistically acted on acetylcholine receptors present on junctions (synaptic terminal) between neurons and between neurons and muscle to thereby induce convulsion. Pilocarpine, having a parasympathetic nerve-stimulating activity, will induce clonic convulsion in the limbs leading to systemic convulsion when administered to mice.
Twelve ICR male mice (weighing 30 to 43 g; purchased from CLEA Japan, Inc.) of nine weeks old were divided into two groups (6 animals/group) and tested. One hour before administration of pilocarpine, Selenoprotein P prepared at a concentration of 2.5 mg/mL with saline was administered to mice at 0.5 mg of Selenoprotein P per animal (200 μL) as a test group. For a control group, an equivalent amount of saline was administered intraperitoneally. Pilocarpine (pilocarpine hydrochloride, Wako Pure Chemical Industries, Ltd.) was prepared at 100 mg/mL with saline and administered to mice intraperitoneally at 270 to 320 mg/kg. Immediately after administration, mice were photographed with a digital video for record of experiment. Observation was made for 60 minutes after administration of pilocarpine. Time required for developing systemic convulsion and survival of the animals were taken for criteria of assessment. […]

[3] = tested on: cultured primary neurons; experiment: Activation of primary neurons by NO (SNAP): mitochondrial dehydrogenase activity, Cell Counting kit-8; format: cell-based; conditions: mouse primary neurons, 15 hours, fragment 0.26 μM as selenium (FIG. 3)
From the text: In order to study the effect of Selenoprotein P on the neurotic activity of NO as synaptic neurotransmitter, cultured primary neurons were subject to the action of an NO generator, S-nitroso-N-acetyl-DL-penicillamine (SNAP, manufactured by DOJINDO LABORATORIES), in the presence of Selenoprotein P to determine as to whether a respiratory capacity of neuronal mitochondria is altered in the presence of Selenoprotein P. For determination of a respiratory capacity of mitochondria, a kit was used that readily measured the dehydrogenase activity in the mitochondrial inner membrane (Cell Counting kit-8, manufactured by DOJINDO LABORATORIES).
Fetus was removed from C57BL/6 mouse of 14-day pregnancy (purchased from Charles River Japan, Inc.). The cerebral cortex from the fetus was treated and dispersed with 0.25% trypsinized EDAT and then cultured in Neurobasal Medium (Gibco BRL.) supplemented with B27 supplement (Gibco ERL.) in 5% CO2 incubator at 37° C. for culture of primary neurons. […] After developing reaction, each 100 μL of the culture supernatant was transferred to a 96-well microtiter plate and then absorption was measured at a wave-length of 450 nm with a microtiter plate reader with a reference wave-length of 650 nm.

[4] = Cell death-inhibitory activity of purified fractions; format: cell-based; conditions: fractions purified from plasma (Preparation 1)
[5] = tested on: cell culture
[6] = tested on: cell culture; experiment: Toxicity when added to cell culture

Row | Compound | Morphology of differentiated cells (neurites, varicosity) ([1]; 3 days) | Rab3a-dyed particles on neurites (FIG. 1) ([1]; 3 days, anti-Rab3a monoclonal antibody) | Proportion of Rab3a-immunopositive cells ± SD ([1]; differentiation with dibutyl cyclic AMP, culture for 3 days, immunopositive varicosity among total varicosity) [%] | Time for developing systemic convulsion compared to control group ([2]; 0.5 mg Selenoprotein P per animal 1 hour before pilocarpine) | Mortality after challenge with pilocarpine compared to control group (FIG. 2) ([2]; 0.5 mg Selenoprotein P per animal, observation 60 minutes) | Mitochondrial respiratory capacity of the neurons in the presence of NO generator SNAP ([3]; SNAP 50 μM, Selenoprotein P or sodium selenite 1 μM) | Activity of dehydrogenase of the mitochondrial inner membrane (mitochondrial respiratory capacity), without SNAP ([3]; no SNAP, Selenoprotein P 1 μM) | Cell death-inhibitory activity per proteins [4] | Toxicity [5] | Toxicity [6]
1 | Selenoprotein P: selenocysteine-containing plasma protein (SEQ ID NO: 1), full-length 64 kDa, purified from human plasma (Preparation 2) | complexity in development of neurites as well as much particulate varicosity | a large number of Rab3a-dyed knotty particles on neurites | 66.0 ± 2.75 | significantly shortened | apparently decreased mortality | significantly increased | tended to show an increased activity | much lower than that of the fragment thereof | no such a high toxicity could be observed | –
2 | N[C@@H](C[Se][Se]C[C@H](N)C(=O)O)C(=O)O [selenocystine] | – | – | – | – | – | – | – | – | – | considerably high toxicity
